Measured values published in article PMC5447021, “TNF Lectin-Like Domain Restores Epithelial Sodium Channel Function in Frameshift Mutants Associated with Pseudohypoaldosteronism Type 1B” (Frontiers in Immunology, 2017).
Entries after “also recorded” stand apart in the source; their conditions may differ. Marks after values point to notes of the source that are not given here.

Columns and labels:
[1] = system: αR438fs (co-expressed with βγ-ENaC); test: Whole-cell patch clamp, αR438fs + WT βγ; type: cell-based, human; conditions: read-out: EC50, solnatide, HEK-293, whole-cell, -100 mV, n = 7
Description: Point mutations of α-, β-, γ- and δ-hENaC and PHA1B frameshift mutations of α-hENaC were prepared with the QuikChange Lightning Site-Directed Mutagenesis Kit (Agilent Technologies, CA, USA). Mutagenic primers were designed individually with the Primer Design Program provided on the producer’s website or for the frameshift mutations the same base changes as reported in patients (see Table 2) were performed. Primers were ordered from Sigma-Aldrich, Vienna, Austria.
HEK-293 cells were transfected 1 day after cell seeding using X-tremeGENE HP DNA transfection reagent (Roche Diagnostics, Mannheim, Germany) according to the manufacturer’s protocol. A set of WT or mutant αβγ- or δβγ-hENaC, or α-, β-, γ-, or δ-hENaC alone was used, and the ratio of DNA to transfection reagent was 1:3. The expression was highest 48–72 h after transfection.
Electrophysiological experiments were performed as described in detail by Shabbir et al. ([16]). […] Currents were recorded with the patch clamp method in the whole-cell mode. The chamber contained 1 ml of the bath solution of the following composition (in mM): 145 NaCl, 2.7 KCl, 1.8 CaCl2, 2 MgCl2, 5.5 glucose, and 10 HEPES, adjusted to pH 7.4 with 1 M NaOH solution. Micropipettes were pulled from thin-walled borosilicate glass capillaries (Harvard Apparatus, Holliston, MA, USA) with a DMZ Zeitz Puller to obtain electrode resistances ranging from 2 to 5 MΩ. […]

[2] = system: αR448fs; test: Membrane abundance of αR448fs; type: cell-based, human; conditions: n = 4
Description: Cell surface biotinylation was performed as previously described ([26]). In brief, A549 cells or transiently transfected HEK-293 cells were grown in 10 cm dishes in 37°C, 5% CO2 incubator in DMEM medium supplemented with 5% FBS. […] Medium was aspirated, and then cells were washed twice with 10 ml ice-cold phosphate-buffered saline (PBS), covered with 2.5 mg EZ-Link Sulfo-NHS-SS-Biotin (Thermo Scientific, Rockford, USA), dissolved in 10 ml ice-cold PBS, and incubated at 4°C with gentle agitation for 30 min. Fifty milliliters of quenching solution were added to cells; then cells were scraped in solution and transferred to fresh 50 ml tube. Cell suspension was centrifuged at 500 × g for 3 min. Supernatant was discarded, and 5 ml of Tris-buffered saline (TBS) was added to the cell pellet. The cell pellet was resuspended and centrifuged at 500 × g for 3 min. Supernatant was discarded and cell pellet was resuspended in lysis buffer containing protease inhibitor cocktail (10 µM pepstatin A, 10 µM phenylmethylsulfonyl fluoride, and 10 µM leupeptin) and transferred to fresh 1.5 ml centrifuge tube. Cell pellet was then homogenized on ice by ultrasonication using 1 s bursts and incubated on ice for at least 30 min. Intact cells and nuclei were pelleted by centrifugation at 10,000 × g for 2 min under cooling conditions. Pellet was then discarded and supernatant was transferred to fresh tube, incubated overnight with 0.5 ml NeutrAvidin Agarose under gentle rotation at 4°C and centrifuged at 500 × g for 5 min under cooling conditions. Supernatant was then discarded and the pellet washed twice with 200 µl lysis buffer. The biotinylated proteins were eluted with 100 µl sodium dodecyl sulfate (SDS) sample buffer (62.5 mM Tris, pH 6.8, 1% SDS, 10% glycerine, 50 mM dithiothreitol) containing 10 µM E64 at 65°C for 10 min. Sample was then centrifuged at 500 × g for 2 min. Pellet was discarded and supernatant subjected to protein electrophoresis and immunoblotting. The biotinylated proteins were separated under reducing conditions by SDS-PAGE using 7.5% SDS gel along with prestained protein marker (cat. #12949 from Cell Signaling). Proteins were then transferred onto a nitrocellulose membrane (UltraCruzTM […], Santa Cruz Biotechnology, TX, USA) by semi-dry blotting at 25 V for 30 min. Unspecific binding sites were blocked by incubating the membrane overnight at 4°C with 3% FBS in PBS supplemented with 0.02% sodium azide. Membrane was then incubated for 90 min with primary antibody (anti-α-hENaC, anti-δ-hENaC, and anti-β-actin from Sigma Aldrich; anti-β- and anti-γ-hENaC from Santa Cruz Biotechnology). […] Exposed films were scanned and quantified using ImageJ (NIH, MD, USA). […]

[3] = system: V567A/E568A and V567A/E568A/E571A α-ENaC mutants; conditions: cited from earlier work
Source text: Lucas et al. ([31]) identified positions V567, E568, and E571 in the α-subunit as the crucial sites for binding of the lectin-like domain of TNF. They generated alanine replacement mutants in this region of α-ENaC and examined its interaction with the TIP peptide. […] In fact, this applies to all the frameshift mutants examined here.

With C[C@@H]1NC(=O)CNC(=O)[C@H](CCC(=O)O)NC(=O)[C@@H]2CCCN2C(=O)[C@H]([C@@H](C)O)NC(=O)[C@H](CCC(=O)O)NC(=O)[C@H](CCCNC(=N)N)NC(=O)[C@H](CCC(N)=O)NC(=O)CNC(=O)[C@@H](N)CSSC[C@@H](C(=O)O)NC(=O)[C@H](Cc2ccc(O)cc2)NC(=O)[C@H](Cc2c[nH]c3ccccc23)NC(=O)[C@@H]2CCCN2C(=O)[C@H](CCCCN)NC(=O)[C@H](C)NC(=O)[C@H](CCC(=O)O)NC1=O [solnatide, L-cysteine, L-cysteinylglycyl-L-glutaminyl-L-arginyl-L-α-glutamyl-L-threonyl-L-prolyl-L-α-glutamylglycyl-L-alanyl-L-α-glutamyl-L-alanyl-L-lysyl-L-prolyl-L-tryptophyl-L-tyrosyl-, cyclic (1→17)-disulfide] the EC50 [1] was 56.6 ± 8 nM, the “Membrane abundance” value ([2]; glycosylated αR448fs, 200 nM solnatide, 5 min) was “highly increased after 5 min of solnatide treatment” and the “Increase in membrane abundance after PNGase F” value ([2]; αR448fs, 200 nM solnatide, 100 units PNGase F) was “completely abolished in deglycosylated mutants; also recorded: after PNGase F treatment no differences can be observed”. The “Membrane abundance, solnatide 5 min” value ([2]; αR448fs, 200 nM, 5 min, relative to WT control (=1), own control 1.32 ± 0.10, p < 0.001 vs control) was 5.88 ± 0.32***, the “Membrane abundance, solnatide 10 min” value ([2]; αR448fs, 200 nM, 10 min, relative to WT control (=1), own control 1.32 ± 0.10) was 1.30 ± 0.12 and the “Binding capacity” value ([3]; double V567A/E568A and triple V567A/E568A/E571A α-ENaC mutants) was “reduced binding capacity”. The “Increase in Po” value ([3]; double and triple α-ENaC TM2 alanine mutants vs WT ENaC) was “abolition of the increase in Po”.
